Legend:
[1] = system: control sera (pooled serum of ten healthy LUMC hospital workers; commercial negative donor pooled serum from the Dutch bloodbank); type: binding, human; set-up: Binding of Control serum LUMC to linear peptides / Binding of Control serum Blood-bank to linear peptides / Binding of Control serum LUMC to looped peptides / Binding of Control Serum Blood-Bank to Looped peptides / Binding of Control serum LUMC to linear peptides of the protein M of SARS-CoV Urbani / Binding of Control serum Blood-bank to linear peptides of the protein M of SARS-CoV Urbani / Binding of Control serum LUMC to looped peptides of the protein M of SARS-CoV Urbani / Binding of Control Serum Blood-Bank to Looped peptides of the protein M of SARS-CoV Urbani: unit not given here
[2] = system: recombinant human anti-SARS-CoV antibody 03-018; type: binding; set-up: Binding of antibody 03-018 to linear peptides of the N protein of SARS-CoV Urbani / Binding of antibody 03-018 to looped/cyclic peptides of the N protein of SARS-CoV Urbani: unit not given here
[3] = system: rabbit serum obtained by immunizing a rabbit with the SARS-CoV strain Frankfurt 1; type: binding; set-up: Binding of a rabbit serum to linear peptides / Binding of a rabbit serum to looped peptides / Rabbit serum linear peptides / Rabbit serum looped peptides / Binding of a rabbit serum to linear peptides of protein N of SARS-CoV Urbani (Rabbit serum linear peptides) / Binding of a rabbit serum to looped/cyclic peptides of protein N of SARS-CoV Urbani (Rabbit serum looped peptides): unit not given here
[4] = system: antibodies in sera from SARS patients (sera 1a, 1b, 2, 6, 37, 62, London, SARS-yellow, SARS-green); type: binding, human; set-up: Binding of serum 6 to linear peptides of protein X1 of SARS-CoV Urbani / Binding of serum 37 to linear peptides of protein X1 of SARS-CoV Urbani / Binding of serum 6 to looped/cyclic peptide (PEPSCAN-ELISA) / Binding of serum 37 to looped/cyclic peptide (PEPSCAN-ELISA) / Binding of serum 37 to looped/cyclic peptides of protein X1 of SARS-CoV Urbani / Binding of serum 6 to linear peptides of protein X2 / Binding of serum 37 to linear peptides of protein X2 / Binding of serum 37 to looped/cyclic peptides of protein X2 of SARS-CoV Urbani / Binding of serum 6 to linear peptides of protein M of SARS-CoV Urbani / Binding of serum 37 to linear peptides of protein M of SARS-CoV Urbani / Binding of serum 6 to looped/cyclic peptides of protein M of SARS-CoV Urbani / Binding of serum 37 to looped/cyclic peptides of protein M of SARS-CoV Urbani / Binding of serum 6 to linear peptides of protein X3 of SARS-CoV Urbani / Binding of serum 37 to linear peptides of protein X3 of SARS-CoV Urbani / Binding of serum 37 to looped/cyclic peptides of protein X3 of SARS-CoV Urbani / Binding of serum 6 to linear peptides of protein X4 of SARS-CoV Urbani / Binding of serum 37 to linear peptides of protein X4 of SARS-CoV Urbani / Binding of serum 37 to looped/cyclic peptides of protein X4 of SARS-CoV Urbani / Binding of serum 6 to linear peptides of protein X5 of SARS-CoV Urbani / Binding of serum 37 to linear peptides of protein X5 of SARS-CoV Urbani / Binding of serum 37 to looped/cyclic peptides of protein X5 of SARS-CoV Urbani / Binding of serum 6 to linear peptides of protein N of SARS-CoV Urbani / Binding of serum 37 to linear peptides of protein N of SARS-CoV Urbani / Binding of serum 6 to linear peptide (PEPSCAN-ELISA) / Binding of serum 1a to looped/cyclic peptides of protein N of SARS-CoV Urbani / Binding of serum 1b to looped/cyclic peptides of protein N of SARS-CoV Urbani / Binding of serum 2 to looped/cyclic peptides of protein N of SARS-CoV Urbani / Binding of serum 6 to looped/cyclic peptides of protein N of SARS-CoV Urbani / Binding of serum 37 to looped/cyclic peptides of protein N of SARS-CoV Urbani / Binding of serum 62 to looped/cyclic peptides of protein N of SARS-CoV Urbani / Binding of serum London to looped/cyclic peptides of protein N of SARS-CoV Urbani / Binding of serum SARS-green to looped/cyclic peptides of protein N of SARS-CoV Urbani: unit not given here

| Sequence | Binding of antibody 03-018 to linear peptides of the N protein of SARS-CoV Urbani [2] | Binding of antibody 03-018 to looped/cyclic peptides of the N protein of SARS-CoV Urbani [2] | Binding of a rabbit serum to linear peptides of protein N of SARS-CoV Urbani (Rabbit serum linear peptides) [3] | Binding of a rabbit serum to looped/cyclic peptides of protein N of SARS-CoV Urbani (Rabbit serum looped peptides) [3] | Binding of serum 1a to linear peptides of protein N of SARS-CoV Urbani [4] | Binding of serum 1a to looped/cyclic peptides of protein N of SARS-CoV Urbani [4] | Binding of serum 1b to linear peptides of protein N of SARS-CoV Urbani [4] | Binding of serum 1b to looped/cyclic peptides of protein N of SARS-CoV Urbani [4] | Binding of serum 2 to linear peptides of protein N of SARS-CoV Urbani [4] | Binding of serum 2 to looped/cyclic peptides of protein N of SARS-CoV Urbani [4] | Binding of serum 6 to linear peptides of protein N of SARS-CoV Urbani [4] | Binding of serum 6 to looped/cyclic peptides of protein N of SARS-CoV Urbani [4] | Binding of serum 37 to linear peptides of protein N of SARS-CoV Urbani [4] | Binding of serum 37 to looped/cyclic peptides of protein N of SARS-CoV Urbani [4] | Binding of serum 62 to linear peptides of protein N of SARS-CoV Urbani [4] | Binding of serum 62 to looped/cyclic peptides of protein N of SARS-CoV Urbani [4] | Binding of serum London to linear peptides of protein N of SARS-CoV Urbani [4] | Binding of serum London to looped/cyclic peptides of protein N of SARS-CoV Urbani [4] | Binding of serum SARS-green to linear peptides of protein N of SARS-CoV Urbani [4] | Binding of serum SARS-yellow to linear peptides of protein N of SARS-CoV Urbani [4] | also measured |
| --- | --- | --- | --- | --- | --- | --- | --- | --- | --- | --- | --- | --- | --- | --- | --- | --- | --- | --- | --- | --- | --- |
| QGVPINTNSGPDDQI | 0.1 | 0.1 | 0.2 | 0.8 | 0.3 | 0.5 | 0.2 | 0.4 | 0.2 | 0.6 | 0.2 | 0.4 | 0.9 | 0.6 | 0.6 | 1.0 | 0.5 | 0.6 | 0.6 | 0.6 | Binding of Control Serum Blood-Bank to Looped peptides [1]: 1.1; Binding of Control serum Blood-bank to linear peptides [1]: 0.6; Binding of Control serum LUMC to linear peptides [1]: 0.6; Binding of Control serum LUMC to looped peptides [1]: 0.8; Binding of serum SARS-green to looped/cyclic peptides of protein N of SARS-CoV Urbani [4]: 1.3; Binding of serum SARS-yellow to looped/cyclic peptides of protein N of SARS-CoV Urbani [4]: 1.7 |
| QHGKEELRFPRGQGV | 0.1 | 0.2 | 0.2 | 0.5 | 0.2 | 0.4 | 0.2 | 0.3 | 0.3 | 0.5 | 0.1 | 0.4 | 0.7 | 0.6 | 0.7 | 0.4 | 0.5 | 0.6 | 0.4 | 0.6 | Binding of Control Serum Blood-Bank to Looped peptides [1]: 0.7; Binding of Control serum Blood-bank to linear peptides [1]: 0.8; Binding of Control serum LUMC to linear peptides [1]: 0.7; Binding of Control serum LUMC to looped peptides [1]: 0.7; Binding of serum SARS-green to looped/cyclic peptides of protein N of SARS-CoV Urbani [4]: 0.4; Binding of serum SARS-yellow to looped/cyclic peptides of protein N of SARS-CoV Urbani [4]: 0.7 |
| QIAQFAPSASAFFGM | 0.1 | 0.3 | 0.1 | 0.5 | 0.3 | 0.5 | 0.1 | 0.3 | 0.2 | 0.5 | 0.2 | 0.3 | 0.7 | 0.8 | 0.6 | 0.8 | 0.5 | 0.5 | 0.7 | 0.7 | Control Serum Blood-Bank Looped peptides [1]: 0.9; Control serum Blood-bank linear peptides [1]: 0.9; Control serum LUMC linear peptides [1]: 0.7; Control serum LUMC looped peptides [1]: 0.7; Binding of serum SARS-green to looped/cyclic peptides of protein N of SARS-CoV Urbani [4]: 0.5; Binding of serum SARS-yellow to looped/cyclic peptides of protein N of SARS-CoV Urbani [4]: 0.5. |
| QKKQPTVTLLPAADM | 0.1 | 0.3 | 0.2 | 0.7 | 0.3 |  | 0.2 |  | 0.2 |  | 0.2 |  | 0.7 |  | 0.6 |  | 0.6 |  | 0.4 | 0.5 | Control Serum Blood-Bank Looped peptides [1]: 0.9; Control serum Blood-bank linear peptides [1]: 0.7; Control serum LUMC linear peptides [1]: 0.6; Control serum LUMC looped peptides [1]: 0.7; Recognition of the peptide by sera of SARS-CoV infected individuals, and form (linear, looped/cyclic) in which it is recognized [4]: recognized in looped/cyclic form |
